Here are results for 15 compounds from patent US5405873A, “Substituted acetamide derivatives” (Banyu Pharmaceutical Co., Ltd., priority 1992, dated 1995).

SMILES strings stand for the structures.

The subject of the first experiment is ACAT. In words: ACAT inhibitory activity (rabbit liver microsomal fraction). In kind it is biochemical, Japanese-White Rabbit. The settings on record: [1-14C]oleyl-CoA and exogenous cholesterol. On the procedure: Enzyme specimen ACAT is prepared from liver microsomal fraction of Japanese-White Rabbit in accordance with the method described in Smith et al., Clinica Chimica Acta, 158, 271 (1986). The ACAT activity is determined by measuring the amount of labeled cholesterol esters from [1-^14 C]oleyl-CoA and exogenous cholesterol also according to the method of Smith et al., ibid. Thus, inhibition rates (%) of the compounds of the present invention against ACAT at a concentration of 0.3 μM are shown in the following table, together with the results of Melinamide (N-(α-methylbenzyl)linoleamide) and YM-17E (1,3-bis[[1-cycloheptyl-3-(p-dimethylaminophenyl)ureido]methyl]-benzene dihydrochloride), as reference compounds, measured at the same time.
Take `CCCCCN(C/C=C/C#CC(C)(C)C)CCNC(=O)CSc1cccc2ccccc12` [Example 1, (E)-N-[2-[N'-Pentyl-(6,6-dimethyl-2-hepten-4-ynyl)amino]ethyl]-(1-naphthylthio)acetamide]: the “Inhibition Rate at 0.3 μM” value is listed as 70%.
In the case of `CCCCCN(CC#CC#CC(C)(C)C)CCNC(=O)CSc1cccc2ccccc12` [Example 2, N-[2-[N'-Pentyl-(6,6-dimethyl-2,4-heptadiynyl)amino]ethyl]-(1-naphthylthio)acetamide], the “Inhibition Rate at 0.3 μM” value is given as 76%.
As to `CCCCCN(CCCC#CC(C)(C)C)CCNC(=O)CSc1cccc2ccccc12` [Example 3, N-[2-[N'-Pentyl-(6,6-dimethyl-4-heptynyl)amino]ethyl]-(1-naphthylthio)acetamide], the “Inhibition Rate at 0.3 μM” value was determined as 68%.
On the same count and under the same terms, then `CCCCCN(CC#CC#CC(C)(C)C)CCNC(=O)CSc1ccc2ccccc2c1` [Example 4, N-[2-[N'-Pentyl-(6,6-dimethyl-2,4-heptadiynyl)amino]ethyl]-(2-napthylthio)acetamide], with 78%; and `CCCCCN(CC#CC#CC(C)(C)C)CCNC(=O)CSc1ccc(C)c(C)c1` [Example 10, N-[2-[N'-Pentyl-(6,6-dimethyl-2,4-heptadiynyl)amino]ethyl]-(3,4-dimethylphenylthio)acetamide], with 84%.
As for `CCCCCN(CC#CC#CC(C)(C)C)CCNC(=O)CSc1c(C)cccc1C` [Example 11, N-[2-[N'-Pentyl-(6,6-dimethyl-2,4-heptadiynyl)amino]ethyl]-(2,6-dimethylphenylthio)acetamide], the “Inhibition Rate at 0.3 μM” value stood at 87%.
As to `CCCCCN(CC#CC#CC(C)(C)C)CCNC(=O)CSc1ccc2oc3ccccc3c2c1` [Example 24, N-[2-[N'-Pentyl-(6,6-dimethyl-2,4-heptadiynyl)amino]ethyl]-(2-dibenzofuranylthio)acetamide], the “Inhibition Rate at 0.3 μM” value was 64%.
`CCCCCN(CC#CC#CC(C)(C)C)CCNC(=O)CSc1c2ccccc2cc2ccccc12` [Example 26, N-[2-[N'-Pentyl-(6,6-dimethyl-2,4-heptadiynyl)amino]ethyl]-(9-anthrylthio)acetamide]: the “Inhibition Rate at 0.3 μM” value amounted to 66%.
Still for that read-out and setting: then `CCCCCN(CC#CC#CC(C)(C)C)CCNC(=O)C[S+]([O-])c1cccc2ccccc12` (stereo not shown) [Example 29, N-[2-[N'-Pentyl-(6,6-dimethyl-2,4-heptadiynyl)amino]ethyl]-(1-naphthylsulfinyl)acetamide], with 70%; and `CCCCCN(CC#CC#CC(C)(C)C)CCNC(=O)CS(=O)(=O)c1cccc2ccccc12` [Example 30, N-[2-[N'-Pentyl-(6,6-dimethyl-2,4-heptadiynyl)amino]ethyl]-(1-naphthylsulfonyl)acetamide], with 75%; and `CCCCN(CC#CC#CC(C)(C)C)CCNC(=O)CSc1cccc2ccccc12` [Example 34, N-[2-[N'-Butyl-(6,6-dimethyl-2,4-heptadiynyl)amino]ethyl]-(1-naphthylthio)acetamide], with 61%.
As to `CC(C)CCCN(CC#CC#CC(C)(C)C)CCNC(=O)CSc1cccc2ccccc12` [Example 36, N-[2-[N'-(4-Methylpentyl)-(6,6-dimethyl-2,4-heptadiynyl)amino]ethyl]-(1-naphthylthio)acetamide], the “Inhibition Rate at 0.3 μM” value is recorded as 75%.
Take `CCCCC/C=C\C/C=C\CCCCCCCC(=O)NC(C)c1ccccc1` (stereo not drawn) [Melinamide, N-(α-methylbenzyl)linoleamide, reference compound]: the “Inhibition Rate at 0.3 μM” value amounted to 15%.
For `CN(C)c1ccc(NC(=O)N(Cc2cccc(CN(C(=O)Nc3ccc(N(C)C)cc3)C3CCCCCC3)c2)C2CCCCCC2)cc1.Cl.Cl` [YM-17E, 1,3-bis[[1-cycloheptyl-3-(p-dimethylaminophenyl)ureido]methyl]-benzene dihydrochloride, reference compound], the “Inhibition Rate at 0.3 μM” value turned out to be 50%.

For a further experiment, the system named is absorption of cholesterol. The experiment is described as follows: Cholesterol absorption inhibitory activity in rat. In kind it is in vivo, Sprague-Dawley rats. The settings on record: 100 mg/kg oral; [3H] cholesterol emulsion; serum radioactivity 4 hours after administration. On the procedure: Cholesterol absorption inhibitory activity is determined by the method described in Fukushima et al., Journal of Atherosclerosis Research, 10, 403 (1969).
That is, Sprague-Dawley rats of 7 weeks age weighing 200 to 250 g are divided into groups at random and fed for 7 days with free access to diet. Then, the compound of the present invention and [^3 H] cholesterol emulsion (suspension of 6.96 mg of cholesterol and 177 mg of triolein in 0.8 ml of 6.8% skimmed milk aqueous solution) prepared into a dose indicated are forcedly given orally (Experiment Group).
As a control group, the solvent used to suspend the compound of the present invention instead of the compound of the present invention in Experiment Group and [^3 H] cholesterol emulsion are forcedly administered orally.
Four hours after administration, blood is collected from the tail. The cholesterol absorption inhibitory activity of the compound is determined in terms of the radiation activity of [^3 H) observed in serum by comparing between the control group and the experiment group. Inhibition rate (%) at 100 mg/kg is calculated and the results are shown in the following table together with the result of YM-17E used as a reference compound.
In the case of `CCCCCN(C/C=C/C#CC(C)(C)C)CCNC(=O)CSc1ccc2ccccc2c1` [Example 6, (E)-N-[2-[N'-Pentyl-(6,6-dimethyl-2-hepten-4-ynyl)amino]ethyl]-(2-naphthylthio)acetamide], the “Inhibition Rate at 100 mg/kg” value was 73%.
Turning to `CN(C)c1ccc(NC(=O)N(Cc2cccc(CN(C(=O)Nc3ccc(N(C)C)cc3)C3CCCCCC3)c2)C2CCCCCC2)cc1.Cl.Cl` [YM-17E, 1,3-bis[[1-cycloheptyl-3-(p-dimethylaminophenyl)ureido]methyl]-benzene dihydrochloride, reference compound], the “Inhibition Rate at 100 mg/kg” value is 63%.
